Read-outs that look alike come from different tables or passages of the source.
Experiments:
[1] = Endotoxin adsorption on peptide/protein-coated Eupergit beads (LAL assay); settings: 50 UI/mL LPS, 0-150 min, vs HSA- and rshCD5-coated controls
Experimental: FIG. 11. Endotoxin adsorption assays on immobilized CD6-derived peptides and proteins. Eupergit® beads coated with different CD6-derived peptides (PD2, PD3, and Pcons) (A) or proteins (rshCD5 and rshCD6) (B) were incubated for different periods of time (0, 30, 90 and 150 min) with a 50 UI/mL endotoxin solution. Limulus amoebocyte lysate activating activity (LAL activity) of supernatants was then monitored along time and the OD 405-620 nm represented. Beads coated with Human Serum Albumin (HSA) were used as negative controls. Shown are triplicates of a representative experiment from two independent performed. Statistical analysis was done by using the 2-tailed paired T test with 95% confidence interval (***, P<0.001).
Proteins or peptides (2.5 mg each) were immobilized via NH2 groups on macroporous acrylic EUPERGIT© beads (0.2 g; Röhm-Pharma GmbH, Germany) following a previously described protocol (Zimmermann M, et al., 1999, Endotoxin adsorbent based on immobilized human serum albumin. Clin Chem Lab Med 37:373-379). Peptide or protein-coated Eupergit® beads are obtained by incubation with stirring of the polymeric beads at room temperature with a solution of the peptides of the invention in sodium phosphate buffer 100 mM pH 8 for 24 hours. After incubation, the beads were washed 3 times with 3 M sodium chloride pH 7.0, 30 mM sodium phosphate buffer pH 4.0 and 30 mM sodium phosphate buffer pH 8.0. Finally, 154 mM sodium chloride solution pH 7.0 was added to the peptide or protein-coated beads.
LPS detection was performed by using the turbidimetric-kinetic Limulus Amebocyte Lysate (LAL) kit-QCL (50-650U, Lonza) following manufacturer's instructions. Protein/peptide-coated EUPERGIT® beads were incubated 1:1 (v:v) with the provided endotoxin solution (50 UI/mL) for different periods of time (0-150 min) at room temperature following manufacturer's instructions.

[2] = test system: mice undergoing CLP-induced septic shock; experiment: Plasma cytokine levels following CLP-induced sepsis; format: in vivo, C57BL/6J mice; settings: 20 h post CLP; 6 mg/kg i.v. at +1 h; vs saline-treated group
Experimental: FIG. 9. Therapeutic effect of CD6.PD3 infusion on cytokine and bacterial load levels following CLP-induced sepsis. (A) C57BL/6J mice were i.v. infused at +1 h post CLP with saline (n=7) or CD6.PD3 peptide (6 mg/kg; n=9), and cytokine plasma levels were monitored by ELISA at different time points (4 h and 20 h) thereafter. Data are expressed as mean±SD. (B) Same mouse groups as in (A) were monitored for blood and spleen bacterial load at 20 h following CLP induction. Data are expressed as mean±SD of CFU/mg (spleen) or CFU/μL (blood). In all cases, statistical differences were evaluated using a 2-tailed Student t-test (*, P<0.05).
Animal procedures were approved by the Animal Experimentation Ethical Committee, University of Barcelona. High-grade mortality (≥90% mortality within the first 48-72 h) CLP-induced septic shock was induced in 8-10 week old C57BL/6J male mice (20-25 g; Charles River) as previously reported (Martinez-Florensa M, et al., 2017, Protective Effects of Human and Mouse Soluble Scavenger-Like CD6 Lymphocyte Receptor in a Lethal Model of Polymicrobial Sepsis, Antimicrob Agents Chemother 61:e01391-16).

[3] = Intrinsic tryptophan fluorescence binding, apparent Kd for LTA; set-up: species or system S. aureus; settings: for Kd: PBS, peptide 10 μg/mL, Hill fit
Experimental: (§1) FIG. 4. Kd analysis of the LPS and LTA interaction with CD6-derived peptides and protein. The apparent Kd values for the binding of peptides and proteins in study to LPS and LTA determined by fluorescence emission of tryptophan residues are shown. Peptides/proteins (10 μg/mL) were titrated with or without increasing concentrations of Re-LPS or LTA in PBS. Peptide samples (with and without either Re-LPS or LTA) and blank samples (Re-LPS or LTA alone) were excited at 295 nm, and the emission spectra recorded from 300 to 400 nm. Results are expressed as the change in peptide fluorescence (AF) at the wavelength of the emission maxima (353 nm for the peptides and 337 nm for rshCD6 protein) in the presence and absence of either Re-LPS or LTA. Results are means±SD of 3 experiments. Peptide fluorescence changes at 353 nm were fitted to the Hill equation.
(§2) Intrinsicfluorescence experiments. To explore the ability of different peptides/proteins to bind LTA (Mr=14,000, from S. aureus) and rough LPS (Re-LPS, Mr=2500, from Salmonella minnesota serotype Re 595), binding studies were carried out in an AB2 spectrofluorimeter with a thermostated cuvette holder (±0.1° C.), using 5×5 mm path-length quartz cuvettes as described (Coya J M, et al., 2015, Natural Anti-Infective Pulmonary Proteins: In Vivo Cooperative Action of Surfactant Protein SP-A and the Lung Antimicrobial Peptide SP-BN, J Immunol 195:1628-36). Re-LPS concentration was assessed by quantification of 2-keto-3-deoxyoctulosonic acid (Garcia-Verdugo I, et al., 2003, Effect of hydroxylation and N187-linked glycosylation on molecular and functional properties of recombinant human surfactant protein A, Biochemistry 42:9532-42). Peptide/protein samples (10 μg/mL) were titrated with different amounts of a stock solution of either LTA or Re-LPS in phosphate buffered saline (PBS) pH 7.2, and the Trp fluorescence emission spectra recorded with excitation at 295 nm. The fluorescence intensity readings were corrected for the dilution caused by […]. Background intensities in peptide/protein-free samples due to LTA or Re-PS were subtracted from each recording. The apparent dissociation constant (Kd) of peptide/protein-ligand complexes were obtained by nonlinear least-squares fitting to the Hill equation of the change in peptide fluorescence at 353 nm with the amount of added LTA or Re-LPS (Garcia-Verdugo I, et al., 2003, Effect of hydroxylation and N187-linked glycosylation on molecular and functional properties of recombinant human surfactant protein A, Biochemistry 42:9532-42): ΔF/ΔFmax=[L]^n/([L]^n+Kd), where ΔF is the change in fluorescence intensity at 353 nm relative to the intensity of free peptide; ΔFmax is the change in fluorescence intensity at saturating LTA or Re-LPS concentrations; [L] is the molar concentration of free ligand; and n is the Hill coefficient.

[4] = Intrinsic tryptophan fluorescence binding, apparent Kd for Re-LPS; set-up: species or system Salmonella minnesota serotype Re 595; settings: for Kd: PBS, peptide 10 μg/mL, Hill fit
Experimental: as §1, §2

## GQVEVHFRGVW (CD6.PD3)
[1]
  endotoxin levels (LAL assay): reduced endotoxin levels
[2]
  IL-1β level: significant lower levels
  IL-6 level: significant lower levels
  TNF-α level: significant lower levels

## GRVEMLEHGEW [CD6.PD2]
[3]
  affinity / Kd for LTA, in words: lower than the prototypical DMBT1.pbs1 and CD6.cons peptides or the rshCD6 protein itself
  Kd: 0.31 ± 0.04 nM
[3]; listed as PD2
  affinity / Kd for LTA, in words: very high affinity
[4]
  affinity / Kd for LPS, in words: lower than the prototypical DMBT1.pbs1 and CD6.cons peptides or the rshCD6 protein itself
  Kd: 35 ± 2 nM
[4]; listed as PD2
  affinity / Kd for LPS, in words: very high affinity
[1]
  endotoxin levels (LAL assay): reduced endotoxin levels

## GTVEVRLEASW [CD6.PD1]
[3]
  affinity / Kd for LTA, in words: lower than the prototypical DMBT1.pbs1 and CD6.cons peptides or the rshCD6 protein itself
  Kd: 0.39 ± 0.06 nM
[3]; listed as PD1
  affinity / Kd for LTA, in words: very high affinity
[4]
  affinity / Kd for LPS, in words: lower than the prototypical DMBT1.pbs1 and CD6.cons peptides or the rshCD6 protein itself
  Kd: 3.5 ± 0.3 nM
[4]; listed as PD1
  affinity / Kd for LPS, in words: very high affinity

— patent US11660326B2, “Bacterial-binding peptides for treatment of infectious diseases and related inflammatory processes” (priority 2018, dated 2023)
